# Assay results: patent US9446039B2, “Aminoheteroaryl compounds as MTH1 inhibitors” (CEMM—FORSCHUNGSZENTRUM FÜR MOLEKULARE MEDIZIN GMBH, priority 2012, dated 2016)
# What was measured:
# Assay type in all cases: binding
# [1] = target: SW480 colon carcinoma cells lysate proteins (Homo sapiens, UniProt P06744); conditions: PreyGene GPI
# [2] = target: SW480 colon carcinoma cells lysate proteins (Homo sapiens, UniProt P22626); conditions: PreyGene HNRNPA2B1
# [3] = target: SW480 colon carcinoma cells lysate proteins (Homo sapiens, UniProt P26447); conditions: PreyGene S100A4
# [4] = target: T1, SW480 colon carcinoma cells lysate proteins (Homo sapiens, UniProt P41250); conditions: PreyGene GARS
# T1 sequence (P41250 37-739): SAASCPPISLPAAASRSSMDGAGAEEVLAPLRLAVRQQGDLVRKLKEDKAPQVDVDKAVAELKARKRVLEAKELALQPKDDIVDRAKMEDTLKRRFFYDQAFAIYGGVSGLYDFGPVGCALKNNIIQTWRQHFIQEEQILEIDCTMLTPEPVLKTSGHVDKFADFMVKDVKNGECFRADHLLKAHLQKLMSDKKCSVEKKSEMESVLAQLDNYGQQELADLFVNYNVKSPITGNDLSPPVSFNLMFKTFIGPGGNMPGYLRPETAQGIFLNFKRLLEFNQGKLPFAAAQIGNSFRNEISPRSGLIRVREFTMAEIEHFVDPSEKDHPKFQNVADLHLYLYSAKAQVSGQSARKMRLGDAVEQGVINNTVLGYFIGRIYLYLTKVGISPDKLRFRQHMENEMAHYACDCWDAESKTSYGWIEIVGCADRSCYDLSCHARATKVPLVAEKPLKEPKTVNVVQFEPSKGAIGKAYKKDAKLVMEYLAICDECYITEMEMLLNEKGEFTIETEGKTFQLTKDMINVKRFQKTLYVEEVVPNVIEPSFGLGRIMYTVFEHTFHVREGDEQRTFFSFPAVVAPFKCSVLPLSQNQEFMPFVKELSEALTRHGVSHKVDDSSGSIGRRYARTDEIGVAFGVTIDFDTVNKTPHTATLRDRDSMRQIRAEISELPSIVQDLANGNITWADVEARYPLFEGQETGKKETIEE
# [5] = target: SW480 colon carcinoma cells lysate proteins (Homo sapiens, UniProt P53999); conditions: PreyGene SUB1
# [6] = target: SW480 colon carcinoma cells lysate proteins (Homo sapiens, UniProt P67936); conditions: PreyGene TPM4
# [7] = target: SW480 colon carcinoma cells lysate proteins (Homo sapiens, UniProt Q09666); conditions: PreyGene AHNAK; SW480 cells
# [8] = target: SW480 colon carcinoma cells lysate proteins (Homo sapiens, UniProt Q13200); conditions: PreyGene PSMD2
# [9] = target: SW480 colon carcinoma cells lysate proteins (Homo sapiens, UniProt Q9HB71); conditions: PreyGene CACYBP
# [10] = target: T2, SW480 colon carcinoma cells lysate proteins (Homo sapiens, UniProt Q9UJZ1); conditions: PreyGene STOML2; SW480 cells
# T2 sequence (Q9UJZ1 29-356): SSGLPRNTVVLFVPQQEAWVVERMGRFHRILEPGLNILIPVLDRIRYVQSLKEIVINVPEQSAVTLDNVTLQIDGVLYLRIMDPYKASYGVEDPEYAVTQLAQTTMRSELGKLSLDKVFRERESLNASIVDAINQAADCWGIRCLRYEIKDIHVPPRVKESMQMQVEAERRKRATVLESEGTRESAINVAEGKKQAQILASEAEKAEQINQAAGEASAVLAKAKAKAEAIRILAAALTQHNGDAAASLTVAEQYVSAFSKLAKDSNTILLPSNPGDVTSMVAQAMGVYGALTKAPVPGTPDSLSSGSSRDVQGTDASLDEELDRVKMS
# [11] = target: SW480 colon carcinoma cells lysate proteins (Homo sapiens, UniProt Q9Y230); conditions: PreyGene RUVBL2
# Sequence of SW480 colon carcinoma cells lysate proteins (Homo sapiens, UniProt Q9Y230) (Q9Y230 whole entry): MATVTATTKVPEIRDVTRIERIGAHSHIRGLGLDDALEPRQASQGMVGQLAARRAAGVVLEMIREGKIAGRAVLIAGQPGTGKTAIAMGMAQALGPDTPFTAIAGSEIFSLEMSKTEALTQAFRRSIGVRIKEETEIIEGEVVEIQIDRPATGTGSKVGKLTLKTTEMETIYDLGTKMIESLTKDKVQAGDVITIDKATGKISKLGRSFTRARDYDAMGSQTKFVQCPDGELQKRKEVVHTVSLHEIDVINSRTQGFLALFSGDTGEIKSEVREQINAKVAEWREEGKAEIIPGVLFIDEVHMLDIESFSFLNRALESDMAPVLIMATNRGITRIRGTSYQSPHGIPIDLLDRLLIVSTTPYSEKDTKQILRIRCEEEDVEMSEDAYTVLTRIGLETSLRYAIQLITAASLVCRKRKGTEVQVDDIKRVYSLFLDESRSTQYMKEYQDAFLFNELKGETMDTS
# Sequence of SW480 colon carcinoma cells lysate proteins (Homo sapiens, UniProt Q9HB71) (Q9HB71 whole entry): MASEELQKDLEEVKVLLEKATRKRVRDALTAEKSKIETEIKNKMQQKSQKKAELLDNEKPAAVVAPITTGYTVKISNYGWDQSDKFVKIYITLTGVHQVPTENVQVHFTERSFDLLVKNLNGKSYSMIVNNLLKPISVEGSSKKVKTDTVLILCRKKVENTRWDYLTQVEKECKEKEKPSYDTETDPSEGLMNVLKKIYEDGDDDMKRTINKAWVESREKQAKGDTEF
# Sequence of SW480 colon carcinoma cells lysate proteins (Homo sapiens, UniProt P22626) (P22626 whole entry): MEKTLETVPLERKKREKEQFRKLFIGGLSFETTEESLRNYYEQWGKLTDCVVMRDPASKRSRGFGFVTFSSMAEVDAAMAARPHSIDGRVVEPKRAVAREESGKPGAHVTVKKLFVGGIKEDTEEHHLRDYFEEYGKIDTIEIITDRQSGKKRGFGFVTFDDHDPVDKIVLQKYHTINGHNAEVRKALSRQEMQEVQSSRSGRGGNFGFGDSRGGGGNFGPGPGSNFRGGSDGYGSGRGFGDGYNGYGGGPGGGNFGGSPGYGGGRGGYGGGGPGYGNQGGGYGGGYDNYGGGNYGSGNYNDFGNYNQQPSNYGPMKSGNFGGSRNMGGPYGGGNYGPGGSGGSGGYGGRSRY
# Sequence of SW480 colon carcinoma cells lysate proteins (Homo sapiens, UniProt P67936) (P67936 whole entry): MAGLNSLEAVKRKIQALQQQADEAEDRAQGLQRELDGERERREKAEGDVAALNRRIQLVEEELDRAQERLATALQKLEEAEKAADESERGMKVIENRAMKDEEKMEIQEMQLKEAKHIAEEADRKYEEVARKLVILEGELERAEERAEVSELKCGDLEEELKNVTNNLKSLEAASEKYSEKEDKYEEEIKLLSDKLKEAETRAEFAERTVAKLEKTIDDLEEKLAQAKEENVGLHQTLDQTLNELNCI
# Sequence of SW480 colon carcinoma cells lysate proteins (Homo sapiens, UniProt P26447) (P26447 whole entry): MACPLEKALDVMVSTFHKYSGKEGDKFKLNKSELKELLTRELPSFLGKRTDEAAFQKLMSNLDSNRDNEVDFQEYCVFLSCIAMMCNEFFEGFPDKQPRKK
# Sequence of SW480 colon carcinoma cells lysate proteins (Homo sapiens, UniProt Q13200) (Q13200 whole entry): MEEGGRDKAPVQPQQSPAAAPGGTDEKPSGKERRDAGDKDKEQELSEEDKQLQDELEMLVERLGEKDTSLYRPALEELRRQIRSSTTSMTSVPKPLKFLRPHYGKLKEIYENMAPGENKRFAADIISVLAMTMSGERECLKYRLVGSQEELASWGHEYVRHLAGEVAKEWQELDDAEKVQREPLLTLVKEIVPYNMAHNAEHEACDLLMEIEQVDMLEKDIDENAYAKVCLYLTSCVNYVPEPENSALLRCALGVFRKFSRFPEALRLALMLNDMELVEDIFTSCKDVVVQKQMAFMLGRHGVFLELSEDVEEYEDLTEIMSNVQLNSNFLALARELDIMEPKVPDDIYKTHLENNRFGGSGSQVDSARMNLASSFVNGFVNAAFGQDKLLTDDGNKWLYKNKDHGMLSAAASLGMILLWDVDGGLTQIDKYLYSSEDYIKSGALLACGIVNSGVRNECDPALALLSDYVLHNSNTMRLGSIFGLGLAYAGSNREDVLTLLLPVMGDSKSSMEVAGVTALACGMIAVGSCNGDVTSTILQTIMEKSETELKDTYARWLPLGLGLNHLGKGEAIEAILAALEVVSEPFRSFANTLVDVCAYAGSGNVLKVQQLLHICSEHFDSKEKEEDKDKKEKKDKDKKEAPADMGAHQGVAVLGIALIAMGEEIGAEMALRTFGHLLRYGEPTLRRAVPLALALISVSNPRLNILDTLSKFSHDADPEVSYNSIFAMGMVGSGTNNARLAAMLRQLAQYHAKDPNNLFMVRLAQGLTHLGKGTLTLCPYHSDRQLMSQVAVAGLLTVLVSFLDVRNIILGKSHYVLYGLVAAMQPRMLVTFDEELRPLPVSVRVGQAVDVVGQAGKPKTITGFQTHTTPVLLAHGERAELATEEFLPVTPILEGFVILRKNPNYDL
structure (smiles),measurement,setting,value
C[C@H](Oc1cc(-c2cnn(C3CCNCC3)c2)cnc1N)c1c(Cl)ccc(F)c1Cl [(5)-crizotinib],AvgP,[1],0.3986
same,SC.Exp. 1-1,[1],4
same,SC.Exp. 1-2,[1],5
same,SC.Exp. 2-1,[1],0
same,SC.Exp. 2-2,[1],0
same,Sum (SC.Exp.),[1],9
same,AvgP,[2],0.2944
same,SC.Exp. 1-1,[2],2
same,SC.Exp. 1-2,[2],2
same,SC.Exp. 2-1,[2],0
same,SC.Exp. 2-2,[2],2
same,Sum (SC.Exp.),[2],6
same,AvgP,[3],0.3894
same,SC.Exp. 1-1,[3],3
same,SC.Exp. 1-2,[3],2
same,SC.Exp. 2-1,[3],0
same,SC.Exp. 2-2,[3],0
same,Sum (SC.Exp.),[3],5
same,AvgP,[4],0.4818
same,SC.Exp. 1-1,[4],6
same,SC.Exp. 1-2,[4],7
same,SC.Exp. 2-1,[4],0
same,SC.Exp. 2-2,[4],0
same,Sum (SC.Exp.),[4],13
same,AvgP,[5],0.206
same,SC.Exp. 1-1,[5],5
same,SC.Exp. 1-2,[5],5
same,SC.Exp. 2-1,[5],2
same,SC.Exp. 2-2,[5],4
same,Sum (SC.Exp.),[5],16
same,AvgP,[6],0.4193
same,SC.Exp. 1-1,[6],5
same,SC.Exp. 1-2,[6],2
same,SC.Exp. 2-1,[6],0
same,SC.Exp. 2-2,[6],0
same,Sum (SC.Exp.),[6],7
same,AvgP,[7],0
same,SC.Exp. 1-1,[7],5
same,SC.Exp. 1-2,[7],6
same,SC.Exp. 2-1,[7],6
same,SC.Exp. 2-2,[7],6
same,SC.Exp. Sum,[7],23
same,AvgP,[8],0.4359
same,SC.Exp. 1-1,[8],6
same,SC.Exp. 1-2,[8],5
same,SC.Exp. 2-1,[8],0
same,SC.Exp. 2-2,[8],0
same,Sum (SC.Exp.),[8],11
same,AvgP,[9],0.392
same,SC.Exp. 1-1,[9],2
same,SC.Exp. 1-2,[9],2
same,SC.Exp. 2-1,[9],0
same,SC.Exp. 2-2,[9],0
same,Sum (SC.Exp.),[9],4
same,AvgP,[10],0
same,SC.Exp. 1-1,[10],5
same,SC.Exp. 1-2,[10],4
same,SC.Exp. 2-1,[10],2
same,SC.Exp. 2-2,[10],2
same,SC.Exp. Sum,[10],13
same,AvgP,[11],0.4297
same,SC.Exp. 1-1,[11],3
same,SC.Exp. 1-2,[11],3
same,SC.Exp. 2-1,[11],0
same,SC.Exp. 2-2,[11],0
same,Sum (SC.Exp.),[11],6
